Where “and” joins values, the source holds several entries; their conditions need not be identical. Equal entries are not always repeated. Structures can show the parent of a compound that is named as a salt. Where two headings read alike, the source gives them in different places.
Columns and labels:
HCoV-OC43 [1] = test: Time-of-addition assay; type: cell-based
Description: To obtain further insight into the stage at which DBM inhibits the replication of HCoV-OC43 and other HCoVs, RD cells were incubated with compounds, including DBM, remdesivir (RDV), and chloroquine (CQ), at different stages of viral infection. Viral RNA from the supernatant was extracted and quantitatively analysed via qRT-PCR. […] For the viral binding assay, cells were cultured in the presence or absence of DBM at different concentrations for 1 hour before being infected with HCoV-OC43 at an MOI of 50, and then were placed on ice for 2 hours for the viral particles to bind to the membrane of the host cells, followed by washing with PBS. […] In addition to binding to receptors from host cells, the spike proteins of HCoV-OC43 could also trigger membrane fusion when HCoV-OC43 spike plasmid-transfected 293T cells were seeded together with RD cells as target cells, and the addition of DBM had no effect on this process (S5C Fig). To examine whether DBM inhibits viral internalisation, cells were inoculated with HCoV-OC43 for 1 hour on ice before being treated with either DBM or DMSO, and CQ was included to prevent endosomal acidification. Subsequently, HCoV-OC43 nucleocapsid proteins were immunostained with CoraLite Plus 488 to assess viral internalisation via confocal microscopy. […] To determine whether DBM influences viral release, we quantified viral RNA both intracellularly and in the supernatant.
To evaluate the effects of DBM on the life cycle of HCoV-229E and HCoV-OC43, fresh culture medium containing 0.6 μM DBM, 0.1 μM remdesivir (RDV), or 10 μM chloroquine (CQ) was supplemented with preseeded cells at different time points relative to infection (entry group: 0 to –2 hours; postinfection group: 2–12 hours; and full-time group: 0 to –12 hours). DMSO served as the control. At 24 hours postinfection, the number of intracellular virus RNA copies was quantified by qRT-PCR as previously described.

Huh-7 cells = test: Cytotoxicity assay (CCK-8), Huh-7 cells
HCoV-229E [2] = test: Antiviral activity in vitro, viral RNA copies by qRT-PCR, HCoV-229E in Huh-7 cells; type: cell-based; design: EC50 (229E, Huh-7): dose-response value per replicate: scale not given here
HCoV-OC43 [3] = test: Antiviral activity in vitro, qRT-PCR, HCoV-OC43 in RD cells; type: cell-based; design: EC50 (OC43, RD): dose-response value per replicate: concentration or dose not given beside the values
HCoV-229E [4] = test: Antiviral activity in vitro, qRT-PCR, HCoV-229E in MRC-5 cells; type: cell-based
HCoV-OC43 [5] = test: Antiviral activity in vitro, qRT-PCR, HCoV-OC43 in Huh-7 cells; type: cell-based; details: Betacoronavirus 1, OC43, Huh-7, 24 h, read-out: EC50 HCoV-OC43 (Huh-7)
HCoV-OC43 [6] = details: Ingenol 3,20-dibenzoate 10 mpk oral QD; day 2; one value per mouse
RD cells = type: cell-based
HCoV-OC43 [7] = test: HCoV-OC43 replication in siRNA-transfected cells; type: cell-based; details: replicates
HCoV-OC43 [8] = test: microbe, parasite or virus in culture; type: cell-based; details: for inhibition at 10 µM: Betacoronavirus 1, OC43, 24 h, read-out: OC43 Inhibition rate
HCoV-229E [9] = test: HTS luminescent cell viability assay, HCoV-229E infection; type: cell-based; details: for inhibition at 10 µM: Human coronavirus 229E, 24 h, read-out: 229E Inhibition rate
[10] = compound 10 μM, 24 h postinfection

Compound: CCN(CC)CCCC(C)Nc1ccnc2cc(Cl)ccc12 (stereo not drawn) [CQ]
- time-of-addition, viral inhibition (HCoV-OC43 [1]): 99.3

Compound: CN[C@@H](C)[C@H]1[C@H](O)C[C@@]2(C)[C@@H]3CC[C@H]4C(C)(C)[C@@H](NC)CC[C@@]45C[C@@]35CC[C@]12C [cyclovirobuxine D]
- selectivity index (SI) (Huh-7 cells): below 25
- EC50 (229E, Huh-7): dose-response value per replicate (HCoV-229E [2]): 87.1 and 91.6 and 92.1 and 83.4 and 77.4 and 88.7 and 0.1 (10×) and 27 and 13.3
- EC50 (OC43, RD): dose-response value per replicate (HCoV-OC43 [3]): 99.7 (3×) and 96.3 and 96.5 and 96.2 and 73.1 and 73 (2×) and 5.5 and 61.2 and 59.8 and 79.4 and 78.3 and 79.9 and 42.6 and 41.4 and 42

Compound: CC1=C[C@]23C(=O)[C@@H](C=C(COC(=O)c4ccccc4)[C@@H](O)[C@]2(O)[C@H]1OC(=O)c1ccccc1)[C@H]1[C@@H](C[C@H]3C)C1(C)C [Ingenol 3,20-dibenzoate, ingenol 3,20-dibenzoate]
- HCoV-229E, MRC-5: inhibition at the concentration (Fig2B) (HCoV-229E [4]): 90.2
- EC50 (HCoV-229E [4]; Human coronavirus 229E, MRC5, 24 h, read-out: EC50 HCoV-229E (MRC-5)): 0.1 µM
- EC50 (HCoV-229E [2]; Human coronavirus 229E, Huh-7, 24 h, read-out: EC50 HCoV-229E (Huh-7)): < 0.08 µM
- EC50 (HCoV-OC43 [3]; Betacoronavirus 1, OC43, RD, 24 h, read-out: EC50 HCoV-OC43 (RD)): < 0.08 µM
- EC50 (HCoV-OC43 [5]): < 0.08 µM
- Body weight changes (HCoV-OC43 [6]): DIED

Compound: ALG11-2 (sense GGUGCCUGUGCAAGUUGUUTT; antisense AACAACUUGCACAGGCACCTT; chemistry not given here)
- Relative mRNA content of the targeted gene after siRNA knockdown (Fig5D) (RD cells): 0.16 and 0.22 and 0.13

Compound: CASP3-1 (sense CCGACAAGCUUGAAUUUAUTT; antisense AUAAAUUCAAGCUUGUCGGTT; chemistry not given here)
- HCoV-OC43 replication in siRNA-transfected cells, inhibition (HCoV-OC43 [7]): -3.8 and -7.6 and -9.9 and 15.1 and 8.0 and 7.0

Compound: C[C@@H]1[C@H](O)[C@@H](C)/C=C/C=C/C=C/C=C/C=C/C=C/C=C/[C@H](O[C@@H]2O[C@H](C)[C@@H](O)[C@H](N)[C@@H]2O)C[C@@H]2O[C@](O)(C[C@@H](O)C[C@@H](O)[C@H](O)CC[C@@H](O)C[C@@H](O)CC(=O)O[C@H]1C)C[C@H](O)[C@H]2C(=O)O [amphotericin B, reference compound]
- selectivity index (SI) (Huh-7 cells): below 25

Compound: IDH3G-1 (sense GCAAGAGUAUCGCCAAUAATT; antisense UUAUUGGCGAUACUCUUGCTT; chemistry not given here)
- Relative mRNA content of the targeted gene after siRNA knockdown (Fig5D) (RD cells): 0.00

Compound: CC[C@@]1(O)C(=O)OCc2c1cc1n(c2=O)Cc2cc3c(N)cccc3nc2-1 [9-amino-CPT]
- OC43 Inhibition rate (HCoV-OC43 [8]; [10]): -9.5%

Compound: O=C(O)c1cc(C(=O)O)c2c(n1)C(=O)C(=O)c1cc(C(=O)O)[nH]c1-2 [Pyrroloquinoline quinone]
- inhibition at 10 µM (HCoV-OC43 [8]): -0.2%
- inhibition at 10 µM (HCoV-229E [9]): 4.2%

Compound: COc1ccc(-c2oc3c(CC=C(C)C)c(O)cc(O)c3c(=O)c2O[C@@H]2O[C@@H](C)[C@H](O)[C@@H](O)[C@H]2O)cc1 [baohuoside I]
- selectivity index (SI) (Huh-7 cells): below 25

Compound: C[S@@+]([O-])CCCCN=C=S [(R)-sulforaphane]
- selectivity index (SI) (Huh-7 cells): below 25

Compound: COC(=O)[C@H]1[C@H]2C[C@@H]3c4[nH]c5ccccc5c4CCN3C[C@H]2C[C@@H](OC(=O)c2cc(OC)c(OC)c(OC)c2)[C@@H]1OC [deserpidine, reference compound]
- selectivity index (SI) (Huh-7 cells): below 25

Compound: Nc1ncnc2c1ccn2[C@@H]1O[C@H](CO)[C@@H](O)[C@H]1O [Tubercidin]
- inhibition at 10 µM (HCoV-OC43 [8]): 1.9%
- inhibition at 10 µM (HCoV-229E [9]): 12.9%

Compound: CYP1A1-2 (sense GGGUUUGACACAGUCACAATT; antisense UUGUGACUGUGUCAAACCCTT; chemistry not given here)
- Relative mRNA content of the targeted gene after siRNA knockdown (Fig5D) (RD cells): 0.00

Compound: C=C(C)[C@H](CC=C(C)C)Cc1c(O)cc(O)c2c1O[C@H](c1ccc(O)cc1O)CC2=O [sophoraflavanone G]
- selectivity index (SI) (Huh-7 cells): below 25

Compound: CO[C@@H]1C[C@@H](C[C@H]2CC[C@H](C)[C@H]([C@@H](C)C(=O)O)O2)O[C@]2(O[C@](C)([C@H]3CC[C@@](C)([C@@H]4O[C@@H]([C@H]5O[C@@](O)(CO)[C@H](C)C[C@@H]5C)C[C@@H]4C)O3)C[C@H]2C)[C@@H]1C [Nigericin (sodium salt)]
- OC43 Inhibition rate (HCoV-OC43 [8]; 10 µM): 8.7%
- 229E Inhibition rate (HCoV-229E [9]; 10 µM): 0.0%

Compound: CASP7-2 (sense GAGGAUUCAGCAAAUGAAGTT; antisense CUUCAUUUGCUGAAUCCUCTT; chemistry not given here)
- HCoV-OC43 replication in siRNA-transfected cells, inhibition (HCoV-OC43 [7]): -52.2 and -54.8 and -44.2 and 4.9 and 14.1
- Relative mRNA content following siRNA knockdown (RD cells): 0.04124 and 0.03671 and 0.03839 and 0.05589 and 0.05554 and 0.05883

Compound: IDH3G-2 (sense GCACGUGAGUUCCAAUGCUTT; antisense AGCAUUGGAACUCACGUGCTT; chemistry not given here)
- Relative mRNA content of the targeted gene after siRNA knockdown (Fig5D) (RD cells): 0.00

Compound: C=C1C(=O)[C@@]23[C@@H]4OC5O[C@@]2(O)[C@@H](O)[C@@H]2C(C)(C)CC[C@@H](O)[C@]52[C@@H]3CC[C@@H]14 [ponicidin]
- selectivity index (SI) (Huh-7 cells): below 25

Compound: UBP1-1 (sense GCACCCACCCUUUCAGUAUTT; antisense AUACUGAAAGGGUGGGUGCTT; chemistry not given here)
- Relative mRNA content of the targeted gene after siRNA knockdown (Fig5D) (RD cells): 0.42 and 0.21 and 0.33

Compound: ELAC2-2 (sense GCAGAGGGAUGCCAUUAUUTT; antisense AAUAAUGGCAUCCCUCUGCTT; chemistry not given here)
- Relative mRNA content of the targeted gene after siRNA knockdown (Fig5D) (RD cells): 0.20 and 0.16 and 0.32

Compound: C=C(C)C(CC=C(C)C)Cc1c(O)cc(OC)c2c1O[C@H](c1ccc(O)cc1OC)CC2=O (stereo partly drawn) [(2S)-2’-methoxykurarinone]
- selectivity index (SI) (Huh-7 cells; CC50 versus EC50, HCoV-229E in Huh-7 and HCoV-OC43 in RD cells): below 25

Compound: CASP7-1 (sense GUGCCAAGAUGCAAGAUCUTT; antisense AGAUCUUGCAUCUUGGCACTT; chemistry not given here)
- HCoV-OC43 replication in siRNA-transfected cells, inhibition (HCoV-OC43 [7]): -1.2 and -4.0 and -5.1 and 6.9 and -3.2 and 8.5
- Relative mRNA content following siRNA knockdown (RD cells): 0.04453 and 0.02767 and 0.03038 and 0.03195 and 0.02491 and 0.0301

Compound: CASP3-2 (sense CCCUGGACAACAGUUAUAATT; antisense UUAUAACUGUUGUCCAGGGTT; chemistry not given here)
- HCoV-OC43 replication in siRNA-transfected cells, inhibition (HCoV-OC43 [7]): 3.7 and -8.9 and -0.3 and 15.3 and 18.4 and 14.9
- Relative mRNA content following siRNA knockdown (RD cells): 0.000229 and 0.000196 and 0.000194 and 0.000282 and 0.000327 and 0.000307

Compound: O=C(O)c1cc(C(=O)O)c2c(n1)C(=O)C(=O)c1cc(C(=O)O)[nH]c1-2 [Pyrroloquinoline quinone (disodium salt)]
- OC43 Inhibition rate (HCoV-OC43 [8]; [10]): -0.3%
- 229E Inhibition rate (HCoV-229E [9]; [10]): 4.0%
